According to US7390836B2, “Small molecules used to increase cell death” (priority 1999, dated 2008):

Legend:
[1] = target: T1, Bad / Bcl-xL on mitochondria isolated from 293 cells (Homo sapiens, UniProt Q07817); assay: Mitochondrial association of Bad in isolated mitochondria; conditions: rank order
T1 construct: expressed in transfected cells; host or cells: 293 cells (isolated mitochondria)
Protocol: FIG. 8C is an images of a the expression of Bad and Bcl-xL in 293 cells co-transfected with HA-Bad and Bcl-xL-T7. After 48 hr, cells were harvested and isolated mitochondria were treated with BH3Is for 2 hrs. Following treatment, mitochondria were pelleted by centrifugation and subjected to Western blot analysis using anti-HA and anti-T 7 antibodies.
(§1) BH3Is disrupted the mitochondrial association of Bad, but not Bcl-xL, after in vitro treatment of the mitochondria isolated from 293 cells co-transfected with Bad and Bcl-xL (FIG. 8C). The relative activities of the BH3Is in this assay (BH3I-2>BH3I-1>BH3I-1″) were consistent with the previous results. […] Again, the order of the activities in these assays was BH3I-2>BH3I-1>BH3I-1″.

[2] = target: T2, Bcl-xL/Bax heterodimerization in 293 cells (Homo sapiens, UniProt Q07817); assay: FRET between Bcl-xL-CFP and Bax-YFP in intact cells; format: cell-based; conditions: rank order; for order of relative effects on YFP fluorescence reduction: rough index of cell death
T2 construct: expressed in transfected cells; host or cells: 293 cells
T2 sequence (Q07817 whole entry, one chain of several): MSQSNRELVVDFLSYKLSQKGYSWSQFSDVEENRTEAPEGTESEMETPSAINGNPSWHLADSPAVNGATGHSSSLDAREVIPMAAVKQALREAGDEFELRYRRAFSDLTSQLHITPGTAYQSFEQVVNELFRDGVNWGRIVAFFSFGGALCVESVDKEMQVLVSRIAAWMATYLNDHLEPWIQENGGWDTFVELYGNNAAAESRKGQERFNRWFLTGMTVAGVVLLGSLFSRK
Text: The effect of the BH3Is on the disruption of the heterodimerization of Bcl-2 family proteins in vivo was next determined. Dimerization of Bcl-2 in immunoprecipitation experiments may represent post-lysis events induced by detergents (Hsu et al., J. Biol. Chem. 272:13829-34, 1997). Therefore, these studies focused on assaying the Bcl-xL dimerization status in intact cells. Recently, the interaction between Bax and Bcl-2 has been studied in intact living cells by fluorescent resonance energy transfer measurements between GFP fusion proteins (Mahajan et al., Nat. Biotechnol. 16:547-52, 1998). This approach was used to monitor the effects of BH3Is on Bcl-xL/Bax heterodimerization in intact cells.
293 cells were transfected with Bcl-xL-CFP and Bax-YFP expression vectors using Lipofectamine Plus (Gibco) or TransLT-1 (PanVera) and 24 hr later were treated with BH3Is. Cells were harvested in PBS supplemented with BH3Is, and fluorescence was determined using a C-60 fluorimeter (PTI) or a Wallac platereader. Fluorescence in the samples separately overexpressing Bax and Bcl-xL was added together and used to estimate the FRET value in the absence of dimerization. The extent of FRET between CFP and YFP was determined as a ratio of fluorescence at 527 nm vs. 475 nm after excitation at 433 nm.

[3] = test system: tBid / Bcl-xL heterodimerization; assay: tBid pulldown with Bcl-xL-His6 beads; format: binding; conditions: for effect on tBid binding to Bcl-xL: 35S labeled in vitro translated tBid; for relative activity in tBid pulldown: comparison between compounds
Protocol: Next, it was determined whether BH3Is could disrupt the heterodimerization of Bcl-xL with pro-apoptotic proteins from the Bcl-2 family, such as truncated Bid (tBid). Truncation of Bid by caspase-8 activates Bid and dramatically increases its affinity towards anti-apoptotic Bcl-2 family members (Li et al., Cell 94:491-501, 1998). To perform this study, in vitro translation of tBid or U2AF^65 (control) was performed using TNT® Coupled Reticulocyte and Wheat Germ Lysate Systems (Promega) respectively. Bcl-xL, U2AF^35 (control) or corresponding amounts of original Ni-NTA agarose beads (blank) were pre-incubated with the BH3 inhibitors or peptide in 100 μl of PBS for 30 min at 25° C. Then 1 μl of ^35S-labeled tBID or U2AF^65 was added and incubation was continued for 2 hr at 4° C. The samples were subjected to SDS-PAGE, coomassie blue staining and autoradiography.

BH3/Bcl-xL binding = assay: SELDI binding assay, unlabeled Bak BH3 peptide on immobilized Bcl-xL-His6; conditions: for relative activity in SELDI assay: comparison between compounds
Text: To test the possibility that BH3Is target the OREGON GREEN moiety of the fluorescently labeled BH3 peptide, a novel BH3/Bcl-xL binding assay using unlabeled BH3 peptide was designed. In this assay Bcl-xL was covalently attached to a surface-enhanced laser desorption/ionization (SELDI) chip, and binding of the unlabelled BH3 peptide to the immobilized protein was monitored by mass spectrometry. Specifically, purified recombinant GST-Bcl-2 and BCL-xL-His6 were coupled through their primary amines to SELDI chip surfaces derivatized with carbonyldiimidazole (Ciphergen). Bak BH3 peptide was then added (in a total volume of 1 μl) for 12 hours at 4° C. in a humidified chamber, to allow binding to each spot of the SELDI chip. The chip was then washed with alternating high and low pH-0.1M sodium acetate with 0.5M NaCl, followed by 0.01M HEPES; pH 7.3. The samples were embedded in α-cyanno-4-hydroxycinnamaic acid matrix and analyzed for mass by MALDI TOF. An average of 100 laser shots at a constant setting were collected over 20 spots in each sample.

[4] = target: T3, Bad-GFP with Bcl-2 or Bcl-xL in BSC-1 cells (Homo sapiens, UniProt Q07817); assay: Bad-GFP localization in intact cells; format: cell-based; conditions: for mitochondrial targeting and heterodimerization of Bad-GFP: BH3I-1 100 μM, BH3I-2 50 μM, 6 hr, 100 μM zVAD; for order of activities, Bad-GFP localization: rank order
T3 construct: expressed in transfected cells; host or cells: BSC-1 cells
T3 sequence (Q07817 whole entry): as the sequence (Q07817 whole entry, one chain of several) above
Protocol: Bad is a pro-apoptotic member of the Bcl-2 family, whose apoptosis-promoting activity and mitochondrial targeting depends on heterodimerization with anti-apoptotic Bcl-2 family members (Zha et al., Cell 87, 619-28, 1996). To examine the effects of BH3Is on Bad localization, BSC-1 cells were transfected with 5 μg of Bad-GFP expression vector alone (FIG. 8D, panels 1 […]) or were co-transfected with 5 μg of Bad-GFP and 5 μg of Bcl-xL-T7 (FIG. 8D, panels 2-5). Twenty four hours after transfection, cells were treated with BH3I-1 (100 μM; FIG. 8D, panel 4) or BH3I-2 (50 μM; FIG. 8D, panel 5) for 6 hr. In order to determine mitochondrial localization, cells were pre-stained with MitoTracker Red CMXRos for 30 min prior to fixation (FIG. 8D, panel 2). All cells in this study were pretreated with 100 μM zVAD to decrease the detrimental effects of overexpression of proapoptotic Bcl-2 proteins on cell viability.
as §1

T1 sequence (Q07817 whole entry): as the sequence (Q07817 whole entry, one chain of several) above

Structure (SMILES) | relative activities, mitochondrial association of Bad [1] | order of changes in the FRET ratio [2] | order of relative effects on YFP fluorescence reduction [2] | effect on tBid binding to Bcl-xL [3] | relative activity in tBid pulldown [3] | effect on BH3 peptide binding to Bcl-xL-modified SELDI surface (BH3/Bcl-xL binding) | mitochondrial targeting and heterodimerization of Bad-GFP [4] | order of activities, Bad-GFP localization [4] | relative activity in SELDI assay (BH3/Bcl-xL binding)
CC(C)C(C(=O)O)N1C(=O)C(=Cc2ccc(Br)cc2)SC1=S (stereo in doubt) [BH3I-1] | BH3I-2>BH3I-1>BH3I-1″ | BH3I-2>BH3I-1>BH3I-1″ | BH3I-2>BH3I-I>BH3I-1″ | dose-dependent decrease in the tBid binding | lower activity than BH3I-2 | reduction of BH3 binding | efficiently disrupted mitochondrial targeting and heterodimerization of Bad-GFP | BH3I-2>BH3I-1>BH3I-1″ | 
O=C(Nc1cc(S(=O)(=O)c2ccc(Cl)cc2)ccc1Cl)c1cc(Cl)cc(Br)c1O [BH3I-2] | BH3I-2>BH3I-1>BH3I-1″ | BH3I-2>BH3I-1>BH3I-1″ | BH3I-2>BH3I-I>BH3I-1″ | dose-dependent decrease in the tBid binding |  | reduction of BH3 binding | efficiently disrupted mitochondrial targeting and heterodimerization of Bad-GFP | BH3I-2>BH3I-1>BH3I-1″ | higher activity than BH3I-1
CC(C)C(C(=O)O)N1C(=O)/C(=C/c2ccccc2)SC1=S (stereo not shown) [BH3I-1″] | BH3I-2>BH3I-1>BH3I-1″ | BH3I-2>BH3I-1>BH3I-1″ | BH3I-2>BH3I-I>BH3I-1″ |  | even lower |  |  | BH3I-2>BH3I-1>BH3I-1″ | lower potency than BH3I-1
